The record followed here is patent publication US12643879B2, “Functionalized heterocyclic compounds as modulators of stimulator of interferon genes (STING)” (RYVU THERAPEUTICS S.A., priority 2019, dated 2026).

The target of test [1] is human STING (Homo sapiens, UniProt Q86WV6). Put plainly: Fluorescence Thermal Shift assay (binding to STING). The following applies: STING 0.1 mg/mL, SyproOrange, 25 to 99° C. The protocol:
Compounds, constructs and conjugates of the present invention were tested for binding to human STING in Fluorescence Thermal Shift assay. STING was preincubated with the compounds for 20 minutes in 50 mM Hepes, 150 mM NaCl, pH 7.5 in 15 or 16 μl volume, following by adding 4 μl of SyproOrange dye dilution (ThermoFisher, cat no. S-6651). Final STING concentration was 0.1 mg/mL. Thermal unfolding was performed in Real-Time PCR QuantStudio 6 Flex System (Applied Biosystems), from 25 to 99° C., with continuous ramp mode and ramp rate 0.033° C./s. The data were analyzed using Protein Thermal Shift Software (ThermoFisher).

Test [2] has as its system interferon regulatory factor (IRF) pathway in THP-1 dual cells. Put plainly: THP-1 Dual reporter assay, IRF pathway (luciferase). In kind it is cell-based. The conditions noted are these: Homo sapiens, THP1-Dual, read-out: THP1 Dual EC50 (μM) IRF. An outline of the steps:
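Readouts come from THP-1 dual cell supernatant taken 18 h after STING agonist addition. SEAP activity is developed in detection medium for 1–2 h at 37° C and read at 630/655 nm; luciferase is read by luminescence immediately after reagent addition.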
(A reporter such as luciferase makes a cellular process visible.)

Test [3] concerns NF-κB pathway in THP-1 dual cells. Put plainly: THP-1 Dual reporter assay, NF-κB pathway (SEAP). In kind it is cell-based. The following applies: Homo sapiens, THP1-Dual, read-out: THP1 Dual EC50 (μM) NFkB. In outline:
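After 18 h exposure of THP-1 dual cells to the STING agonist compounds, culture medium was collected. Part was mixed with luminescence reagent and read at once for IRF-driven luciferase; another part was incubated with SEAP detection medium for 1 or 2 hours at 37° C before absorbance at 630 or 655 nm.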

Setting [4] is: 18 h stimulation, absorbance at 630 or 655 nm.

The structures appear in SMILES notation. Where a name gives a salt, the structure may show the parent alone. Read-outs that look alike come from different tables or passages of the source.

Chain of human STING (Q86WV6 whole entry H232R): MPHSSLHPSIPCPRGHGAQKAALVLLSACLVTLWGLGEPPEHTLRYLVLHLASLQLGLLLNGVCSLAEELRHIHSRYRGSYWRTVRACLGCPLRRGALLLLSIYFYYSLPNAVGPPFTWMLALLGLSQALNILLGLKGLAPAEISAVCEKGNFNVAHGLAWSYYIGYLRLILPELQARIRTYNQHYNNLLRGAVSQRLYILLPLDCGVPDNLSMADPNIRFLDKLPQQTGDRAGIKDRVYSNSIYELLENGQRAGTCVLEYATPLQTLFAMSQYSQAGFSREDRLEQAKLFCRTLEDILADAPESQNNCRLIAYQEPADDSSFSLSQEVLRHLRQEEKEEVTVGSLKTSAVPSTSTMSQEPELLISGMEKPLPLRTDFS

For the compound `Cc1cc(CN(Cc2cn(C3CC3)c3cc(N4CC[C@@H](O)C4)c(F)cc3c2=O)[C@H]2CCCN(c3cccnc3)C2)ccn1` [Example 78, 1-Cyclopropyl-6-fluoro-7-[(3R)-3-hydroxypyrrolidin-1-yl]-3-({[(2-methylpyridin-4-yl)methyl][(3S)-1-(pyridin-3-yl)piperidin-3-yl]amino}methyl)-1,4-dihydroquinolin-4-one], the “hSTING FTS binding assay (ΔT C. °)” value in test [1] was “+++ (+++=ΔTm ≥20° C.)”. The half-maximal effective concentration (EC50) in test [2] (18 h stimulation, luminescence) is less than 1 µM; in test [3] (setting [4]) it was less than 1 µM.
`Cc1ccc(N2CCC[C@H](N(Cc3ccnc(C)c3)Cc3cn(C)c4cc(N5CC[C@@H](O)C5)ccc4c3=O)C2)cn1` [Example 23, 7-[(3R)-3-hydroxypyrrolidin-1-yl]-1-methyl-3-({[(3S)-1-(6-methylpyridin-3-yl)piperidin-3-yl][(2-methylpyridin-4-yl)methyl]amino}methyl)-1,4-dihydroquinolin-4-one]: in test [1], the “hSTING FTS binding assay (ΔT C. °)” value is “++ (++=10<ΔTm <20° C.)”. The EC50 in test [2] (18 h stimulation, luminescence) is less than 1 µM; in test [3] (setting [4]), less than 1 µM.
Turning to `Cc1ccc(N2CCC[C@H](N(Cc3ccnc(C)c3)Cc3cn(CCN)c4ccccc4c3=O)C2)cn1` [Example 18, 1-(2-Aminoethyl)-3-({[(3S)-1-(6-methylpyridin-3-yl)piperidin-3-yl][(2-methylpyridin-4-yl)methyl]amino}methyl)-1,4-dihydroquinolin-4-one], the “hSTING FTS binding assay (ΔT C. °)” value in test [1] is “+ (+=ΔTm ≤10° C.)”. Besides, the EC50 in test [2] (18 h) and in test [3] (18 h) was 1 to 10 µM in each case.
As to `Cc1cc(CN(Cc2cn(C(C)C)c3cc(N4CC[C@@H](O)C4)ccc3c2=O)[C@H]2CCCN(c3ccnnc3)C2)ccn1` [Example 49, 7-[(3R)-3-hydroxypyrrolidin-1-yl]-3-({[(2-methylpyridin-4-yl)methyl][(3S)-1-(pyridazin-4-yl)piperidin-3-yl]amino}methyl)-1-(propan-2-yl)-1,4-dihydroquinolin-4-one], the “hSTING FTS binding assay (ΔT C. °)” value in test [1] is reported as “+ (+=ΔTm ≤10° C.)”. Moreover, the EC50 in test [2] (18 h stimulation, luminescence) was greater than 10 µM; in test [3] (setting [4]) it was greater than 10 µM.
As to `CN[C@H]1CCN(c2cc3c(cc2F)c(=O)c(CN(Cc2ccnc(C)c2)[C@H]2CCCN(c4ccc(C)nc4)C2)cn3C2CC2)C1.Cl` [Example 58, 1-cyclopropyl-6-fluoro-7-[(3S)-3-(methylamino)pyrrolidin-1-yl]-3-({[(3S)-1-(6-methylpyridin-3-yl)piperidin-3-yl][(2-methylpyridin-4-yl)methyl]amino}methyl)-1,4-dihydroquinolin-4-one hydrochloride], the “hSTING FTS binding assay (ΔT C. °)” value in test [1] is on record as “+++ (+++=ΔTm ≥20° C.)”. In addition, the concentration giving a half-maximal response (EC50) in test [2] (18 h stimulation, luminescence) was less than 1 µM; in test [3] (setting [4]), less than 1 µM.
Regarding `Cc1ccc(N2C[C@@H](F)C[C@H](N(Cc3ccnc(C)c3)Cc3cn(C4CC4)c4cc(OCCO)c(F)cc4c3=O)C2)cn1` [Example 75, 1-cyclopropyl-6-fluoro-3-({[(3S,5S)-5-fluoro-1-(6-methylpyridin-3-yl)piperidin-3-yl][(2-methylpyridin-4-yl)methyl]amino}methyl)-7-(2-hydroxyethoxy)-1,4-dihydroquinolin-4-one], in test [1], the “hSTING FTS binding assay (ΔT C. °)” value is listed as “+++ (+++=ΔTm ≥20° C.)”. Moreover, the EC50 in test [2] (18 h stimulation, luminescence) is less than 1 µM; in test [3] (setting [4]) it was less than 1 µM.
On to `CNC1CCN(c2cc3c(cc2F)c(=O)c(CN(Cc2ccnc(C)c2)[C@H]2CCCN(c4ccc(C)nc4)C2)cn3C2CC2)CC1.Cl` [Example 19, 1-cyclopropyl-6-fluoro-7-[4-(methylamino)piperidin-1-yl]-3-({[(3S)-1-(6-methylpyridin-3-yl)piperidin-3-yl][(2-methylpyridin-4-yl)methyl]amino}methyl)-1,4-dihydroquinolin-4-one hydrochloride], for which the “hSTING FTS binding assay (ΔT C. °)” value in test [1] was “+++ (+++=ΔTm ≥20° C.)”. Moreover, the EC50 was less than 1 µM in test [2] (18 h stimulation, luminescence) and less than 1 µM in test [3] (setting [4]).
For `Cc1ccc(N2CCC[C@H](N(Cc3ccnc(C)c3)Cc3cn(C4CC4)c4cc(NCCN(C)C)c(F)cc4c3=O)C2)cn1` [Example 9, 1-Cyclopropyl-7-{[2-(dimethylamino)ethyl]amino}-6-fluoro-3-({[(3S)-1-(6-methylpyridin-3-yl)piperidin-3-yl][(2-methylpyridin-4-yl)methyl]amino}methyl)-1,4-dihydroquinolin-4-one], in test [1], the “hSTING FTS binding assay (ΔT C. °)” value is reported as “+++ (+++=ΔTm ≥20° C.)”. The EC50 in test [2] (18 h stimulation, luminescence) is less than 1 µM; in test [3] (setting [4]), less than 1 µM.
As for `Cc1ccc(N2CCC[C@H](N(Cc3ccnc(C)c3)Cc3cn(C4CC4)c4cc(N5CCC(O)CC5)c(F)cc4c3=O)C2)cn1.Cl` [Example 32, 1-cyclopropyl-6-fluoro-7-(4-hydroxypiperidin-1-yl)-3-({[(3S)-1-(6-methylpyridin-3-yl)piperidin-3-yl][(2-methylpyridin-4-yl)methyl]amino}methyl)-1,4-dihydroquinolin-4-one hydrochloride], the “hSTING FTS binding assay (ΔT C. °)” value in test [1] is “+++ (+++=ΔTm ≥20° C.)”. In addition, the concentration giving a half-maximal response (EC50) in test [2] (18 h stimulation, luminescence) is less than 1 µM; in test [3] (setting [4]), less than 1 µM.
With `Cc1cc(CN(Cc2cn(C3CC3)c3cc(N4CCC[C@H](O)C4)c(F)cc3c2=O)[C@H]2CCCN(c3cccnc3)C2)ccn1.Cl` [Example 86, 1-cyclopropyl-6-fluoro-7-[(3S)-3-hydroxypiperidin-1-yl]-3-({[(2-methylpyridin-4-yl)methyl][(3S)-1-(pyridin-3-yl)piperidin-3-yl]amino}methyl)-1,4-dihydroquinolin-4-one hydrochloride], the “hSTING FTS binding assay (ΔT C. °)” value in test [1] was “+++ (+++=ΔTm ≥20° C.)”. The EC50 in test [2] (18 h stimulation, luminescence) is less than 1 µM; in test [3] (setting [4]), less than 1 µM.
With `Cc1ccc(N2CCC[C@H](N(Cc3ccnc(C)c3)Cc3cn(C4CC4)c4cc(N5CCCC(C(=O)O)C5)c(F)cc4c3=O)C2)cn1` (stereo partly drawn) [Example 66, 1-[1-cyclopropyl-6-fluoro-3-({[(3S)-1-(6-methylpyridin-3-yl)piperidin-3-yl][(2-methylpyridin-4-yl)methyl]amino}methyl)-4-oxo-1,4-dihydroquinolin-7-yl]piperidine-3-carboxylic acid], the “hSTING FTS binding assay (ΔT C. °)” value in test [1] is listed as “+++ (+++=ΔTm ≥20° C.)”. For the same compound, the EC50 in test [2] (18 h stimulation, luminescence) was in the range of 1 to 10 µM; in test [3] (setting [4]), 1 to 10 µM.
For `Cc1ccc(N2CCC[C@H](N(Cc3ccnc(C)c3)Cc3cn(C4CC4)c4cc(N5CC[C@H](CN)C5)c(F)cc4c3=O)C2)cn1` [Example 15, 7-[(3R)-3-(Aminomethyl)pyrrolidin-1-yl]-1-cyclopropyl-6-fluoro-3-({[(3S)-1-(6-methylpyridin-3-yl)piperidin-3-yl][(2-methylpyridin-4-yl)methyl]amino}methyl)-1,4-dihydroquinolin-4-one hydrochloride], the “hSTING FTS binding assay (ΔT C. °)” value in test [1] is on record as “+++ (+++=ΔTm ≥20° C.)”. Further, the half-maximal effective concentration (EC50) is less than 1 µM in test [2] (18 h stimulation, luminescence) and less than 1 µM in test [3] (setting [4]).
`Cc1cc(CN(Cc2cn(C)c3ccccc3c2=O)[C@H]2CCCN(c3ccc(N)nc3)C2)ccn1` [Example 2, 3-({[(3S)-1-(6-Aminopyridin-3-yl)piperidin-3-yl][(2-methylpyridin-4-yl)methyl]amino}methyl)-1-methyl-1,4-dihydroquinolin-4-one]: in test [1], the “hSTING FTS binding assay (ΔT C. °)” value is listed as “+++ (+++=ΔTm ≥20° C.)”. The EC50 in test [2] (18 h stimulation, luminescence) is less than 1 µM; in test [3] (setting [4]), less than 1 µM.
For `Cc1cc(CN(Cc2cn(C(C)C)c3ccccc3c2=O)[C@H]2CCCN(c3ccc(N)nc3)C2)ccn1.Cl` [Example 34, 3-({[(3S)-1-(6-aminopyridin-3-yl)piperidin-3-yl][(2-methylpyridinyl-4-yl)methyl]amino}methyl)-1-(propan-2-yl)-1,4-dihydroquinolin-4-one hydrochloride], the “hSTING FTS binding assay (ΔT C. °)” value in test [1] is reported as “+++ (+++=ΔTm ≥20° C.)”. The concentration giving a half-maximal response (EC50) in test [2] (18 h stimulation, luminescence) was less than 1 µM; in test [3] (setting [4]) it was less than 1 µM.
As for `Cc1ccc(N2CCC[C@H](N(Cc3ccnc(C)c3)Cc3cn(C4CC4)c4cc(N5CC(CO)C5)c(F)cc4c3=O)C2)cn1` [Example 27, 1-cyclopropyl-6-fluoro-7-[3-(hydroxymethyl)azetidin-1-yl]-3-({[(3S)-1-(6-methylpyridin-3-yl)piperidin-3-yl][(2-methylpyridin-4-yl)methyl]amino}methyl)-1,4-dihydroquinolin-4-one], the “hSTING FTS binding assay (ΔT C. °)” value in test [1] is on record as “+++ (+++=ΔTm ≥20° C.)”. Moreover, the EC50 in test [2] (18 h stimulation, luminescence) was less than 1 µM; in test [3] (setting [4]), less than 1 µM.
On to `Cc1ccc(N2CCC[C@H](N(Cc3ccnc(C)c3)Cc3cn(C4CC4)c4cc(N5CC(N)C6(CC6)C5)c(F)cc4c3=O)C2)cn1.Cl` (stereo partly drawn) [Example 22, 7-{7-amino-5-azaspiro[2.4]heptan-5-yl}-1-cyclopropyl-6-fluoro-3-({[(3S)-1-(6-methylpyridin-3-yl)piperidin-3-yl][(2-methylpyridin-4-yl)methyl]amino}methyl)-1,4-dihydroquinolin-4-one hydrochloride], for which the “hSTING FTS binding assay (ΔT C. °)” value in test [1] is reported as “+++ (+++=ΔTm ≥20° C.)”. In addition, the concentration giving a half-maximal response (EC50) in test [2] (18 h stimulation, luminescence) was less than 1 µM; in test [3] (setting [4]), less than 1 µM.

A word on the EC50: it is the midpoint of the concentration-response curve.
